Tests used:
[1] = system: A549 (human lung carcinoma) cells; test: Cell Viability Assay (CellTiter-Glo), A549; format: cell-based; details: Homo sapiens, A549, 72 h
Summary of the method: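 RPMI 1640/10% FBS; seed 1.67E+04 cells/mL, o/n 37° C., 5% CO2; serial-dilution cmpd 72 h; CellTiter-Glo luminescence vs DMSO; 4-parameter logistic fit → IC50.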

KRAS G12C = KRAS G12C (Homo sapiens (Human), UniProt P01116, C118A/G12C); test: 2 h coupled exchange assay; format: biochemical; details: Avg 2 h Coupled exchange IC50, 2 h compound pre-incubation, SOS-mediated nucleotide exchange
Procedure: The term “2 h coupled exchange assay” or “20 h coupled exchange assay” as used herein refers to the assay described in the Section entitled “BIOLOGICAL EVALUATION.”

[2] = system: MIA PaCa-2 (human pancreatic carcinoma) cells; test: Cell Viability Assay (CellTiter-Glo), MIA PaCa-2; format: cell-based; details: Homo sapiens, MIA PaCa-2, 72 h
Procedure: Serially-diluted compound or DMSO was added to the cells, and plates were incubated at 37° C., 5% CO2 for 72 h. Cell viability was measured using a CellTiter-Glo® Luminescent Cell Viability Assay kit (Promega) according to the manufacturer's protocol. The luminescence signal of treated samples was normalized to DMSO control, and data were analyzed using a 4-parameter logistic model to calculate IC50 values.

KRAS G12C, sequence (P01116 other isoform, or with tags, fused parts or gaps G12C/C118A): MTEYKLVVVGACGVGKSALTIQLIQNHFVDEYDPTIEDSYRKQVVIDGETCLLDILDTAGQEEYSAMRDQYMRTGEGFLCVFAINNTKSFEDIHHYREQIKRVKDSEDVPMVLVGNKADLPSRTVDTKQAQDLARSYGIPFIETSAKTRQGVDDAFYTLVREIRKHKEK

Row | SMILES | IC50 [1] [µM] | IC50 (KRAS G12C) [µM] | IC50 [2] [µM]
1 | C=CC(=O)N1CC2(CCN(c3nc4c(c(-c5c(C)ccc6cn[nH]c56)n3)CCCC4)C2)C1 [Example 1-16, 1-(6-(4-(6-methyl-1H-indazol-7-yl)-5,6,7,8-tetrahydro-2-quinazolinyl)-2,6-diazaspiro[3.4]octan-2-yl)-2-propen-1-one] | > 25 | 6.72 | 10.3
2 | C=CC(=O)N1CC2(CCN(c3nc4c(c(-c5c(C)ccc6[nH]ncc56)n3)CCCC4)C2)C1 [Example 1-17, 1-(6-(4-(5-methyl-1H-indazol-4-yl)-5,6,7,8-tetrahydro-2-quinazolinyl)-2,6-diazaspiro[3.4]octan-2-yl)-2-propen-1-one] | > 5 | 5.76 | > 5
3 | C=CC(=O)N1CC2(CCN(c3nc4c(c(-c5cc(O)ccc5Cl)n3)CCCC4)C2)C1 [Example 1-18, 1-(6-(4-(2-chloro-5-hydroxyphenyl)-5,6,7,8-tetrahydro-2-quinazolinyl)-2,6-diazaspiro[3.4]octan-2-yl)-2-propen-1-one] | 9.46 | 8.46 | 8.67
4 | C=CC(=O)N1CC2(CCN(c3nc4c(c(-c5cccc6cc(O)ccc56)n3)CCCC4)C2)C1 [Example 1-21, 1-(6-(4-(6-hydroxy-1-naphthalenyl)-5,6,7,8-tetrahydro-2-quinazolinyl)-2,6-diazaspiro[3.4]octan-2-yl)-2-propen-1-one] | > 5 | 0.435 | > 5
5 | C=CC(=O)N1CC2(CCN(c3nc(-c4cc(O)cc5ccccc45)c4ncc(C)cc4n3)C2)C1 [Example 1-22, 1-(6-(4-(3-hydroxy-1-naphthalenyl)-7-methylpyrido[3,2-d]pyrimidin-2-yl)-2,6-diazaspiro[3.4]octan-2-yl)-2-propen-1-one] | > 25 | 1.14 | 4.26
6 | C=CC(=O)N1CC2(CCN(c3nc4c(c(-c5cccc6sc(N)nc56)n3)CCCC4)C2)C1 [Example 1-23, 1-(6-(4-(2-amino-1,3-benzothiazol-4-yl)-5,6,7,8-tetrahydro-2-quinazolinyl)-2,6-diazaspiro[3,4]octan-2-yl)-2-propen-1-one] | 10.5 | 1.22 | 5.27
7 | C=CC(=O)N1CC2(CCN(c3nc4c(c(-c5cccc(Cl)c5Cl)n3)CCCC4)C2)C1 [Example 1-24, 1-(6-(4-(2,3-dichlorophenyl)-5,6,7,8-tetrahydro-2-quinazolinyl)-2,6-diazaspiro[3.4]octan-2-yl)-2-propen-1-one] | 10.6 | 4.25 | 8.29
8 | C=CC(=O)N1CC2(CCN(c3nc4c(c(-c5c(C)ccc6cnn(C)c56)n3)CCCC4)C2)C1 [Example 1-25, 1-(6-(4-(1,6-dimethyl-1H-indazol-7-yl)-5,6,7,8-tetrahydro-2-quinazolinyl)-2,6-diazaspiro[3.4]octan-2-yl)-2-propen-1-one] | 20.3 | 2.6 | 8.86
9 | C=CC(=O)N1CC2(CCN(c3nc4c(c(-c5cccc(C)c5C)n3)CCCC4)C2)C1 [Example 1-26, 1-(6-(4-(2,3-dimethylphenyl)-5,6,7,8-tetrahydro-2-quinazolinyl)-2,6-diazaspiro[3.4]octan-2-yl)-2-propen-1-one] | 13.8 | 3.98 | 9.82
10 | C=CC(=O)N1CC2(CCN(c3nc4c(c(-c5cccc(C)c5Cl)n3)CCCC4)C2)C1 [Example 1-27, 1-(6-(4-(2-chloro-3-methylphenyl)-5,6,7,8-tetrahydro-2-quinazolinyl)-2,6-diazaspiro[3.4]octan-2-yl)-2-propen-1-one] | 20.8 | 5.17 | 11.8
11 | C=CC(=O)N1CC2(CCN(c3nc(-c4cccc5cccc(C)c45)c4c(n3)N(C)CCO4)C2)C1 [Example 1-28, 1-(6-(8-methyl-4-(8-methyl-1-naphthalenyl)-7,8-dihydro-6H-pyrimido[5,4-b][1,4]oxazin-2-yl)-2,6-diazaspiro[3.4]octan-2-yl)-2-propen-1-one] | 11.5 | 2.98 | 9.36
12 | C=CC(=O)N1CC2(CCN(c3nc4c(c(-c5cccc6cccc(C)c56)n3)CCC(C)(C)C4)C2)C1 [Example 1-30, 1-(6-(7,7-dimethyl-4-(8-methyl-1-naphthalenyl)-5,6,7,8-tetrahydro-2-quinazolinyl)-2,6-diazaspiro[3.4]octan-2-yl)-2-propen-1-one] | 10.3 | 3.46 | > 5
13 | C=CC(=O)N1CC2(CCN(c3nc4c(c(-c5cc(O)cc6ccccc56)n3)CCC(C)(C)C4)C2)C1 [Example 1-31, 1-(6-(4-(3-hydroxy-1-naphthalenyl)-7,7-dimethyl-5,6,7,8-tetrahydro-2-quinazolinyl)-2,6-diazaspiro[3.4]octan-2-yl)-2-propen-1-one] | > 5 | 0.075 | > 5

Second part, the compound after the results:

Row | IC50 [1] [µM] | IC50 (KRAS G12C) [µM] | IC50 [2] [µM] | SMILES
14 | 12.1 | 250 | 17.1 | C=CC(=O)N1CC2(CCN(c3nc(-c4ccccc4F)c4ccn(C)c4n3)C2)C1 [Example 1-32]
15 | 13.5 | 174 | 13.4 | C=CC(=O)N1CC2(CCN(c3nc(-c4ccccc4F)c4c(n3)N(C)CCC4)C2)C1 [Example 1-33, 1-(6-(4-(2-fluorophenyl)-8-methyl-5,6,7,8-tetrahydropyrido[2,3-d]pyrimidin-2-yl)-2,6-diazaspiro[3,4]octan-2-yl)-2-propen-1-one]
16 | 7.12 | 1.55 | 2.37 | C=CC(=O)N1CC2(CCN(c3nc4c(c(-c5c(C(C)C)ccc6[nH]ncc56)n3)CCCC4)C2)C1 [Example 1-35, 1-(6-(4-(5-(2-propanyl)-1H-indazol-4-yl)-5,6,7,8-tetrahydro-2-quinazolinyl)-2,6-diazaspiro[3.4]octan-2-yl)-2-propen-1-one]
17 | 15.9 | 1.66 | 3.38 | C=CC(=O)N1CC2(CCN(c3nc4c(c(-c5c(C)ccc6[nH]nc(C)c56)n3)CCCC4)C2)C1 [Example 1-36, 1-(6-(4-(3,5-dimethyl-1H-indazol-4-yl)-5,6,7,8-tetrahydro-2-quinazolinyl)-2,6-diazaspiro[3.4]octan-2-yl)-2-propen-1-one]
18 | > 25 | 0.402 | 2.28 | C=CC(=O)N1CC2(CCN(c3cn4c(C)cnc4c(-c4c(C)ccc5[nH]ncc45)c3C#N)C2)C1 [Example 1-37, 3-methyl-8-(5-methyl-1H-indazol-4-yl)-6-(2-(2-propenoyl)-2,6-diazaspiro[3.4]octan-6-yl)imidazo[1,2-a]pyridine-7-carbonitrile]
19 | 6.25 | 0.103 | 0.294 | C=CC(=O)N1CC2(CCN(c3cn4cc(-c5ccccc5)nc4c(-c4c(C)ccc5[nH]ncc45)c3C#N)C2)C1 [Example 1-38, 8-(5-methyl-1H-indazol-4-yl)-2-phenyl-6-(2-(2-propenoyl)-2,6-diazaspiro[3.4]octan-6-yl)imidazo[1,2-al]yridine-7-carbonitrile]
20 | 6.25 | 0.757 | 2.75 | C=CC(=O)N1CC2(C1)CN(c1nc3c(F)cccc3c(-c3c(C)ccc4[nH]ncc34)c1C#N)CC2(F)F [Example 1-39, 2-(8,8-difluoro-2-(2-propenoyl)-2,6-diazaspiro[3.4]octan-6-yl)-8-fluoro-4-(5-methyl-1H-indazol-4-yl)-3-quinolinecarbonitrile]

From patent US20240059703A1 (AMGEN INC., priority 2021, published 2024)
